Usually IC50 stands for the midpoint of a concentration-inhibition curve. A higher IC50 goes with weaker potency.

Assay [1] deals with T1, FAS (Homo sapiens (Human), UniProt P49327). Description: biochemical.
Experimental: (§1) Inhibition of FAS activity can be measured based on the detection of residual NADPH substrate after the FAS assay is quenched. This assay is run as a 10 μL endpoint assay in 384-well format, where the reaction contains 20 μM malonyl-CoA, 2 μM acetyl-CoA, 30 μM NADPH and 40 nM FAS in 50 mM sodium phosphate, pH 7.0. […] The reaction is incubated at ambient temperature for 60 minutes, then quenched with 5 μL of a developing solution composed of 90 μM resazurin, 0.3 IU/ml diaphorase in 50 mM sodium phosphate, pH 7.0. The developed reaction is read on a Molecular Devices Analyst or Acquest (or equivalent) plate reader using a 530 nm excitation wavelength filter, a 580 nm emission filter, and 561 nm dichroic filter. The test compounds are prepared in neat DMSO at a concentration of 10 mM. […] Curves are analysed using ActivityBase and XLfit, and results are expressed as pIC50 values.
(§2) Inhibition of FAS can also be quantified based on the detection of the CoA products with a thio-reactive coumarin dye. This assay is run as a 10 μL endpoint assay in 384-well format, where the reaction contains 20 μM malonyl-CoA, 20 μM acetyl-CoA, 40 μM NADPH and 2 nM FAS in 50 mM sodium phosphate, pH 7.0, and 0.04% Tween-20. […] After 30 minutes, 5 μL substrate is added, and the reaction incubated at ambient temperature for an additional 60 minutes. The reaction is then quenched with 10 μL of 6M guanidine-HCl containing 50 μM CPM (7-diethylamino-3-(4′-maleimidylphenyl)-4-methylcoumarin (CPM; thio-reactive dye), and incubated for 30 minutes. The plate is read on an Envision (PerkinElmer) or equivalent plate reader using a 380 nm excitation wavelength filter, and a 486 nm emission filter. Data fitting and compound preparations are done as described above.
For assay [2], the target named is T1, FAS. The settings on record: inhibition of FAS; tested by one of the two FAS assays; value from at least one experiment or the average of multiple experiments.
Experimental: as §1, §2

Structures are written as SMILES. Where two headings read alike, the source gives them in different places.

T1 sequence (P49327 whole entry): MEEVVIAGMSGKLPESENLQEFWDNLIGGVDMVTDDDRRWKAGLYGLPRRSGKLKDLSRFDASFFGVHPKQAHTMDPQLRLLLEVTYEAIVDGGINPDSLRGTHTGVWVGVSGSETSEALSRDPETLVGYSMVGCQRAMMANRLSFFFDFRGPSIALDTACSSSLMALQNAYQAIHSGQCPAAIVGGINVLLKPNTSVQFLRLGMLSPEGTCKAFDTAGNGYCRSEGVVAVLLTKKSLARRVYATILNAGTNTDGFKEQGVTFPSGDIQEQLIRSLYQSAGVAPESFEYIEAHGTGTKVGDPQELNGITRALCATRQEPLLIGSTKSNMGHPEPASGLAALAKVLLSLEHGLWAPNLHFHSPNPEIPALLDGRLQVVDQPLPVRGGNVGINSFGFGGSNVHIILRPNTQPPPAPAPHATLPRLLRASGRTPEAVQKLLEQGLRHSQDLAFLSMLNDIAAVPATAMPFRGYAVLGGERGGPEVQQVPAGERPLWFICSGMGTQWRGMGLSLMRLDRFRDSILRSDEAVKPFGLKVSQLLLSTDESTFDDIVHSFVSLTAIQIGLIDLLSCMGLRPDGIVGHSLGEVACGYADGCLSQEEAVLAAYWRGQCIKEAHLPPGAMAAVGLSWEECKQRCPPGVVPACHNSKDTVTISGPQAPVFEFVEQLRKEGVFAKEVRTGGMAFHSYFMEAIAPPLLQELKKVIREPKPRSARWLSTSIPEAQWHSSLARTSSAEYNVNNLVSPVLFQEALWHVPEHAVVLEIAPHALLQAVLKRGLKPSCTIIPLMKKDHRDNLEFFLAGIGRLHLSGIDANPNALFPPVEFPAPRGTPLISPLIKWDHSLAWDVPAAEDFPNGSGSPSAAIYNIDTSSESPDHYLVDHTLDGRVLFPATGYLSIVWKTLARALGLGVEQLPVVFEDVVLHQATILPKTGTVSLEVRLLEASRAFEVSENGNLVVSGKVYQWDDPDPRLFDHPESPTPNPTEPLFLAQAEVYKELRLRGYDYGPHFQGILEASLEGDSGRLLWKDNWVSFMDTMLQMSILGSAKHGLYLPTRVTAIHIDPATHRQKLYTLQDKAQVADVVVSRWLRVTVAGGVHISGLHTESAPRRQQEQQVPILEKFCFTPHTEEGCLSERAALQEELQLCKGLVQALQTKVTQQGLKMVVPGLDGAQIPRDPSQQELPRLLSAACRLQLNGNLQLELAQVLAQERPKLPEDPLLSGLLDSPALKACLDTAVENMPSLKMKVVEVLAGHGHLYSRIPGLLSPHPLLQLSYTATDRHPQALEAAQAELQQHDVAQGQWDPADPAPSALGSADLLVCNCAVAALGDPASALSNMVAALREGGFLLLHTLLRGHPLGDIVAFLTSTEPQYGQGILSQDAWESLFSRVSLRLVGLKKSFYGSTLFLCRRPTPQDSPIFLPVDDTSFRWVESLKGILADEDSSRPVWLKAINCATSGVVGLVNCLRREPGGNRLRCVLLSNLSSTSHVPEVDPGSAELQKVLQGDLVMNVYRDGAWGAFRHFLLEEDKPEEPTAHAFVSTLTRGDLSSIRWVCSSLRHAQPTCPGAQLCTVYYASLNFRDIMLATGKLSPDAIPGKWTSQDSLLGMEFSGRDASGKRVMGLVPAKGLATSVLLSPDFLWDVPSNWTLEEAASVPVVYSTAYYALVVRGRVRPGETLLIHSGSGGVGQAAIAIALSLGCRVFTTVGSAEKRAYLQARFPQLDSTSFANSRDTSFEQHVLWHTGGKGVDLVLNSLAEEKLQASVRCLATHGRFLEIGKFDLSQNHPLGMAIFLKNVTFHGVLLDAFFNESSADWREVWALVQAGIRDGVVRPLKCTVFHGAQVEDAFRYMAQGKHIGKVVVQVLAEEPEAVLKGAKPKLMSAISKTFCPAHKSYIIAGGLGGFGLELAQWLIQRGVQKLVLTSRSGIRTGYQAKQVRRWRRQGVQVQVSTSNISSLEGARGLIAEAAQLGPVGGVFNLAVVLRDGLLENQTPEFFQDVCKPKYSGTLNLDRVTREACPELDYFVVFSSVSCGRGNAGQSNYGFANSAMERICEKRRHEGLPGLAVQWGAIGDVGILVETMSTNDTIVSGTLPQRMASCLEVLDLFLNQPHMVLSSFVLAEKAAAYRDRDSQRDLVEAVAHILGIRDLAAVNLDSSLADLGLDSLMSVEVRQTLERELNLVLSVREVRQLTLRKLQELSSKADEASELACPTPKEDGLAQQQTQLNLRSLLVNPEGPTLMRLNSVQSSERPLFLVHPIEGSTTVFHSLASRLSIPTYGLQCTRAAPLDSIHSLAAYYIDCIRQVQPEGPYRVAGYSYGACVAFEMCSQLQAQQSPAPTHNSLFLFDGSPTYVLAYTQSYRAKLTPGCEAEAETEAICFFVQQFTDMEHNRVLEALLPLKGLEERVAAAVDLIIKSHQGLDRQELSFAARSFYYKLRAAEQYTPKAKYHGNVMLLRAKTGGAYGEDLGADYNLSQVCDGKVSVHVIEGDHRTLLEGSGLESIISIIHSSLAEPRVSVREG

Turning to `N#Cc1ccc(-c2ccc(-n3c(C[C@@H]4CCN(C(=O)C5CC5)C4)n[nH]c3=O)cc2)cc1` [Example 4, 4′-(3-{[(3S)-1-(cyclopropylcarbonyl)-3-pyrrolidinyl]methyl}-5-oxo-1,5-dihydro-4H-1,2,4-triazol-4-yl)-4-biphenylcarbonitrile], the IC50 against FAS [1] came out at 126 nM.

At FAS [2], `Cn1nc(C[C@@H]2CCN(C(=O)C3CC3)C2)n(-c2ccc(-c3ccc4occc4c3)cc2)c1=O` [Example 7, 4-[4-(1-benzofuran-5-yl)phenyl]-5-{[(3S)-1-(cyclopropylcarbonyl)-3-pyrrolidinyl]methyl}-2-methyl-2,4-dihydro-3H-1,2,4-triazol-3-one] yielded an IC50 of 20 nM.

Regarding `O=C(C1CC1)N1CC[C@@H](Cc2n[nH]c(=O)n2-c2ccc(-c3ccc4ccoc4c3)cc2)C1` [Example 14, 4-[4-(1-benzofuran-6-yl)phenyl]-5-{[(3S)-1-(cyclopropylcarbonyl)-3-pyrrolidinyl]methyl}-2,4-dihydro-3H-1,2,4-triazol-3-one], the IC50 against FAS [2] is 6 nM.

Take `Cn1cnc2cc(-c3ccc(-n4c(C[C@@H]5CCN(C(=O)C6CC6)C5)n[nH]c4=O)cc3)ccc21` [Example 23, 5-{[(3S)-1-(cyclopropylcarbonyl)-3-pyrrolidinyl]methyl}-4-[4-(1-methyl-1H-benzimidazol-5-yl)phenyl]-2,4-dihydro-3H-1,2,4-triazol-3-one]: the IC50 on FAS [2] came to 13 nM. Compared with the last compound, the IC50 is about 2.2-fold higher.

Turning to `O=C(C1CC1)N1CC[C@@H](Cc2n[nH]c(=O)n2-c2ccc(-c3ccc4c(c3)OCO4)cc2)C1` [Example 38, 4-[4-(1,3-benzodioxol-5-yl)phenyl]-5-{[(3S)-1-(cyclopropylcarbonyl)-3-pyrrolidinyl]methyl}-2,4-dihydro-3H-1,2,4-triazol-3-one], the midpoint of inhibition against FAS [2], the IC50, lay at 158 nM.

At FAS [2], `Cc1cc(-c2ccc3cc[nH]c3c2)ccc1-n1c(C[C@@H]2CCN(C(=O)C3CC3)C2)n[nH]c1=O` [Example 42, 5-{[(3S)-1-(cyclopropylcarbonyl)-3-pyrrolidinyl]methyl}-4-[4-(1H-indol-6-yl)-2-methylphenyl]-2,4-dihydro-3H-1,2,4-triazol-3-one] yielded an IC50 of 5 nM. Compared with the last compound, the IC50 is about 32-fold lower.

At FAS [2], `O=C(C1CC1)N1CC(Cc2n[nH]c(=O)n2-c2ccc(-c3ccc4cc[nH]c4c3)cc2)C1` [Example 67, 5-{[1-(cyclopropylcarbonyl)-3-azetidinyl]methyl}-4-[4-(1H-indol-6-yl)phenyl]-2,4-dihydro-3H-1,2,4-triazol-3-one] returned an IC50 of 16 nM.

On FAS [2], `CN(C)Cc1ccc(-c2ccc(-n3c(C[C@@H]4CCN(C(=O)C5CC5)C4)n[nH]c3=O)cc2)cc1` [Example 95, 5-{[(3S)-1-(cyclopropylcarbonyl)-3-pyrrolidinyl]methyl}-4-{4′-[(dimethylamino)methyl]-4-biphenylyl}-2,4-dihydro-3H-1,2,4-triazol-3-one] registered an IC50 of 200 nM.

`COc1ccc(-c2ccc(-n3c(C[C@@H]4CCN(C(=O)C5CC5)C4)n[nH]c3=O)c(F)c2)cc1` [Example 116, 5-{[(3S)-1-(cyclopropylcarbonyl)-3-pyrrolidinyl]methyl}-4-[3-fluoro-4′-(methyloxy)-4-biphenylyl]-2,4-dihydro-3H-1,2,4-triazol-3-one]: at FAS [2], the IC50 was 40 nM. This IC50 lies about 5-fold lower than the previous one.

Compound `O=C(C1CC1)N1CC[C@@H](Cc2n[nH]c(=O)n2-c2ccc(-c3ccc4cnccc4c3)cc2F)C1` [Example 132, 5-{[(3S)-1-(cyclopropylcarbonyl)-3-pyrrolidinyl]methyl}-4-[2-fluoro-4-(6-isoquinolinyl)phenyl]-2,4-dihydro-3H-1,2,4-triazol-3-one] registered an IC50 against FAS [2] of 3 nM.

`CC(=O)Nc1ccc(-c2ccc(-n3c(C[C@@H]4CCN(C(=O)C5CC5)C4)n[nH]c3=O)c(F)c2)cc1` [Example 158, N-[4′-(3-{[(3S)-1-(cyclopropylcarbonyl)-3-pyrrolidinyl]methyl}-5-oxo-1,5-dihydro-4H-1,2,4-triazol-4-yl)-3′-fluoro-4-biphenylyl]acetamide] yielded an IC50 at FAS [2] of 398 nM.
